According to patent US20210363495A1, “CULTURE MEDIA FOR PLURIPOTENT STEM CELLS” (Yeda Research and Development Co. Ltd., priority 2019, published 2021):
pIC50: −log10 of the molar value.

Assays:
human naïve PSCs [1] = test: RT-PCR analysis for naïve pluripotency markers; assay type: cell-based; details: ENHSM with and without P38i/JNKi, normalized to ACTIN, primed set as 1
From the text: (§1) FIGS. 2A-I. Optimizations for enhanced human naive pluripotency conditions. A. W3G4 METTL3 TET-OFF cells were maintained in the presence of DOX for up to 4 passages in different conditions and stained for OCT4 to quantify percentage of cells that retained their pluripotency. […] B. Quantification of ΔPE-OCT4-GFP knock in naïve pluripotency reporter, in variety of primed (red) and naïve conditions (blue). Mean fluorescence intensity values (MFI) are indicated. […] C. Quantification of ΔPE-OCT4-GFP knock in naïve pluripotency reporter, in optimized naïve conditions and various concentrations of GSK3 inhibitor that leads to WNT activation (CHIR99021 is used as GSK3 inhibitor and is abbreviated as CHIR). […] D. Phase images showing how supplementation of 0.2% Geltrex (Life Technologies) in the growth media and SRCi additively enhance domed like morphology of human naïve PSCs in ENHSM conditions optimized herein. E. RT-PCR analysis for naïve pluripotency markers in ENHSM conditions with and without P38i/JNKi (BIRB0796). Values were normalized to ACTIN and values in Primed conditions were set as 1. […] F. W3G4 METTL3 TET-OFF cells were maintained in the presence of DOX for up to 4 passages in the optimized ENHSM conditions but without TNKi, in order to see if other molecules can substitute for TNKi after all optimizations were applies (e.g. adding of Geltrex, concentration optimization). […]

human naïve PSCs [2] = test: Pluripotency maintenance of naïve cells in ENHSM supplemented with CHIR; assay type: cell-based; details: ENHSM plus CHIR; TGFB inhibition, depleted DNA and RNA methylation or no L-Glutamine
From the text: The present inventors next aimed to define the signaling pathway downstream of Tankyrase inhibition facilitating human naïve PSCs stabilization. Bcat-KO ESCs had higher levels of Oct4-GFP in ENHSM condition, and upon removal of XAV939 GFP level was not decreased in KO, but in WT ESCs. A similar trend was shown in RT-PCR analysis. Supplementing naïve cells with WNT stimulator compromised delta-PE-OCT4-GFP levels, compromised their domed shape like morphology and their transcriptional profile. Using a tamoxifen induced Beta-Catenin-ERT transgene, the present inventors noted that delta-PE-OCT4-GFP signal and domed morphology were compromised upon tamoxifen stimulation. […] Similarly, while KO of TCF3 boosts mouse naïve pluripotency and alleviates the need for WNT stimulation, TCF3 KO ESCs still required WNTi and/or SRCi to maintain their naïve identity in humans. […] Collectively, these findings clearly establish WNT as a priming agent for human, but not mouse, naïve pluripotency and establish that KO of beta-catenin can substitute for Tankyrase inhibition.

[3] = test system: WIBR3 hESC line carrying ΔPE-OCT4-GFP reporter; test: ΔPE-OCT4-GFP knock in naïve pluripotency reporter quantification; assay type: cell-based, human
From the text: as §1

primed human PSCs = test: Single cell cloning efficiency; assay type: cell-based; details: primed cells, ROCK inhibitor used
PKCγ [4] = details: fourth value of the list; read-out: IC50 PKCγ (second mention); cited from earlier work
PKCζ = biological target: T1, PKCζ (Homo sapiens, UniProt Q05513); details: cited from earlier work
T1 sequence (Q05513 1-592): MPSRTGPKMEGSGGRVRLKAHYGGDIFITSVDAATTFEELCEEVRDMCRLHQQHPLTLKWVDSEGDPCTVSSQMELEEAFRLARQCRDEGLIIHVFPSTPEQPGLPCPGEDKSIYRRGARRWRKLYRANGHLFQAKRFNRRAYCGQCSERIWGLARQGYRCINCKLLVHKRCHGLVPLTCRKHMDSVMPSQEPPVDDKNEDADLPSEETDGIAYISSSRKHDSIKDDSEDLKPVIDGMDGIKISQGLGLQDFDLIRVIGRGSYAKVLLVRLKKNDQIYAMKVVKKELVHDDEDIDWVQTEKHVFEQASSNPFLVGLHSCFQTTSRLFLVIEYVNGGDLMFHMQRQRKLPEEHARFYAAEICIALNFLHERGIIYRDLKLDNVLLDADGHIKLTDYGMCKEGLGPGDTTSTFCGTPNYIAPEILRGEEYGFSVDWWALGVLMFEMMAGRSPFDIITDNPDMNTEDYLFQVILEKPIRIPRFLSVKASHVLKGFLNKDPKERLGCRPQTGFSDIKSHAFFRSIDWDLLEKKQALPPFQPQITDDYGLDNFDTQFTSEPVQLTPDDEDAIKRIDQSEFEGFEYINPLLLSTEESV

PKCγ [5] = biological target: PKCγ (Homo sapiens, UniProt P05129); details: third value of the list; cited from earlier work
PKCβ = PKCβ (Homo sapiens, UniProt P05771); details: cited from earlier work
PKCμ = biological target: T2, PKCμ (Homo sapiens, UniProt Q15139); details: cited from earlier work
T2 sequence (Q15139 1-912): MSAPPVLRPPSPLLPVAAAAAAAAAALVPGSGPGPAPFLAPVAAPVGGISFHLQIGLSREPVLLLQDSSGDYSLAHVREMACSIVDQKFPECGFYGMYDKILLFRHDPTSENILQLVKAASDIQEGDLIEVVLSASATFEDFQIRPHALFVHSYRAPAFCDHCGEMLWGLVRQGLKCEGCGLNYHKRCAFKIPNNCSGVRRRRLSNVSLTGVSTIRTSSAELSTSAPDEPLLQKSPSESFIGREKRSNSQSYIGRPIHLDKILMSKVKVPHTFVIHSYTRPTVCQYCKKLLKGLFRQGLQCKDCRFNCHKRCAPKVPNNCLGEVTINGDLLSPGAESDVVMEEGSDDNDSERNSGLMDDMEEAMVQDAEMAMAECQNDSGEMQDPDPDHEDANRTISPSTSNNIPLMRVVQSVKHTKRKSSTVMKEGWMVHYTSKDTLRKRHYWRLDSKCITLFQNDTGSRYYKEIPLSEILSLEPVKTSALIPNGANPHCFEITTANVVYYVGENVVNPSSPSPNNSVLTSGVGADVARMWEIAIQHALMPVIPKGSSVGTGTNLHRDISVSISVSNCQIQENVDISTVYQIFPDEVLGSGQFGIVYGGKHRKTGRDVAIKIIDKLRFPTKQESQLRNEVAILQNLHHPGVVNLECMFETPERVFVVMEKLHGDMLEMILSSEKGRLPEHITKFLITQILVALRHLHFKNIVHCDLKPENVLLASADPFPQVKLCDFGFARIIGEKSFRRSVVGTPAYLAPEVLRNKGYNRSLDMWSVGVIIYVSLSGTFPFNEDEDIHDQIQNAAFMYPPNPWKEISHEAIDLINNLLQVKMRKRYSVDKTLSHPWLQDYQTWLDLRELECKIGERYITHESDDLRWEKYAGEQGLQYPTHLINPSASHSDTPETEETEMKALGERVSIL

PKCα = PKCα (Homo sapiens, UniProt P17252); details: cited from earlier work
[6] = test system: Tet-OFF-METTL3 hESCs (WIBR3, clone W3G4); test: Pluripotency (OCT4+) maintenance of Tet-OFF-METTL3 hESCs in the presence of DOX; assay type: cell-based, human; details: individual small molecule supplemented to NHSM, Geltrex coated plates, no MEFs
From the text: FIGS. 1A-I Defining enhanced human naive conditions compatible with expanding METTL3 depleted PSCs. A. Strategy for generating human ESCs with TET-OFF regulated expression of METTL3 m^6A methyltransferase enzyme. B. Western blot analysis for correctly engineered human ESCs with TET-OFF METTL3 regulation, before and after DOX treatment. C. Representative images for human METTL3 TET-OFF engineered cells in different conditions with or without DOX addition. […] D. Scheme depicting strategy for conducting a screen for identifying a small molecule or cytokine additive to previously described human naïve NHSM conditions that allow maintain pluripotency in TET-OFF METTL3 human stem cells after adding DOX. E. W3G4 cells were maintained in the presence of DOX for up to 4 passages in different conditions and stained for OCT4 to quantify percentage of cells that retained their pluripotency. […] F. OCT4+ pluripotency maintenance in NHSM conditions supplemented with various TNK inhibitors and DOX to repress METTL3 expression. G. Quantification of ΔPE-OCT4-GFP knock in naïve pluripotency reporter, in variety of primed (red) and naïve conditions (blue). Mean fluorescence intensity values (MFI) are indicated. H. Quantification of ΔPE-OCT4-GFP knock in naïve pluripotency reporter in variety of conditions with various concentrations of ACTIVIN A recombinant cytokine. […] I. Representative phase contrast images in human ESCs expanded in NHSM+TNKi conditions showing their maintenance of pluripotent domed-like morphology even in the presence of FGFRi.
In order to identify culture conditions which capture human naïve PSC, the present inventors looked for agents which are capable of maintaining stem cells in a pluripotent state in the absence of defined epigenetic repressors. Human knock-in WIBR3 hESC lines with conditional inducible ablation expression of METTL3 were engineered (FIG. 1A). This was carried out by introducing an exogenous METTL3 transgene under the regulation of Tet-OFF promoter (Liao et al., 2015), followed by CRISPR/Cas9 mediated ablation of both endogenous human METTL3 alleles. Two resultant clones were validated for METTL3 expression only from the exogenous allele, which can be shut off by addition of DOX to the media (called Tet-OFF-METTL3 lines) (FIG. 1B).
The latter further support rewiring toward naïve pluripotency in NHSM conditions. […] Candidate molecules were tested for the ability to enrich NHSM conditions that allow Tet-OFF-METTL3 to be maintained on Geltrex coated plates in the presence of DOX.
NHSM conditions were supplemented with individual small molecules (FIG. 1D). […] IWR1 is a WNT inhibitor (WNTi) small molecule that stabilizes AXIN protein in the cytoplasm by inhibiting Tankyrase enzyme (abbreviated herein as TNK inhibitor—TNKi).

Sequence of PKCβ (P05771 whole entry, species assumed): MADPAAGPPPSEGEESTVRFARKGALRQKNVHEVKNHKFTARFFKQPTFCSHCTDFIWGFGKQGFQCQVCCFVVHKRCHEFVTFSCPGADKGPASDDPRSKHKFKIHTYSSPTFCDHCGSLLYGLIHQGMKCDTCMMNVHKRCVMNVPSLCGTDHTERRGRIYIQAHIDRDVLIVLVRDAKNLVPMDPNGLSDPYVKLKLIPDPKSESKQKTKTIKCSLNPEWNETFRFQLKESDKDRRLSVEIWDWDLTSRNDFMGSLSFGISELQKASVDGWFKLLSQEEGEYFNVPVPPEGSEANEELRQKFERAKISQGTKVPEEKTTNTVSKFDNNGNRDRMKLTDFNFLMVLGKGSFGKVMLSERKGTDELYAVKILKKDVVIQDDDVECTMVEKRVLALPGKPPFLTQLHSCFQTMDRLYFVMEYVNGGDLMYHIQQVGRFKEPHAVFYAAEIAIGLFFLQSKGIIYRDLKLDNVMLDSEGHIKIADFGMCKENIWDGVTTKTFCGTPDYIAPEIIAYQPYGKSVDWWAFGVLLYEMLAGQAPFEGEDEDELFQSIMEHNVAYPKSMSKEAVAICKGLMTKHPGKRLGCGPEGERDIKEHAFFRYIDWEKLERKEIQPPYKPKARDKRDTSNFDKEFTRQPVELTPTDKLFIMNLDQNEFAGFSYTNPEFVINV

## Cc1ccc(-n2nc(C(C)(C)C)cc2NC(=O)Nc2ccc(OCCN3CCOCC3)c3ccccc23)cc1 [BIRB0796]
Human naïve PSCs [1]
  naïve pluripotency marker expression: boosts expression of naïve pluripotency markers

## Cc1c[nH]c(-c2cnc(NCCNc3ccc(C#N)cn3)nc2-c2ccc(Cl)cc2Cl)n1 [CHIR99021]
Human naïve PSCs [2]
  ability to maintain pluripotency: compromised their ability to maintain pluripotency
[3]; optimized naïve conditions, various concentrations of GSK3 inhibitor
  ΔPE-OCT4-GFP intensity: negatively influences human naive pluripotency

## C[C@@H](N)[C@H]1CC[C@H](C(=O)Nc2ccncc2)CC1 [Condition Y27632]
Primed human PSCs
  single cell cloning: 10-20%

## COc1ccc2c(c1)c(C1=C(c3c[nH]c4ccccc34)C(=O)NC1=O)cn2CCCN(C)C [Go6983]
PKCγ [4]
  pIC50: 8.00
PKCζ
  pIC50: 7.22
PKCγ [5]
  pIC50: 8.22
PKCβ
  pIC50: 8.15
PKCμ
  pIC50: 4.70
PKCα
  pIC50: 8.15

## O=C(Nc1cccc2cccnc12)c1ccc(N2C(=O)[C@@H]3[C@H](C2=O)[C@@H]2C=C[C@H]3C2)cc1 [IWR1]
[3]; TNKi supplemented to NHSM conditions
  ΔPE-OCT4-GFP expression: boosts expression of GFP
[6]
  expansion of Tet-OFF-METTL3 on DOX: enabled the expansion of Tet-OFF-METTL3 on DOX with great homogeneity
